Square brackets hold non-standard residues; d marks the D form. Peptide text beside a SMILES is read from it. * marks the point of attachment. Orn = NCCC[C@H](N)C(=O)O; Hexanoyl = CCCCCC(=O)*; Aib = CC(C)(N)C(=O)O Where only a bound is given, the exact number is not on record here.

What is called IC50 is the concentration at which inhibition is half-maximal. What is called EC50 is the concentration that produces a half-maximal response. A high value points to weaker potency.

One series concerns the target T1, human PAC1 (Homo sapiens, UniProt P41586).
T1 construct: expressed in transfected cells
T1 sequence (P41586 21-468): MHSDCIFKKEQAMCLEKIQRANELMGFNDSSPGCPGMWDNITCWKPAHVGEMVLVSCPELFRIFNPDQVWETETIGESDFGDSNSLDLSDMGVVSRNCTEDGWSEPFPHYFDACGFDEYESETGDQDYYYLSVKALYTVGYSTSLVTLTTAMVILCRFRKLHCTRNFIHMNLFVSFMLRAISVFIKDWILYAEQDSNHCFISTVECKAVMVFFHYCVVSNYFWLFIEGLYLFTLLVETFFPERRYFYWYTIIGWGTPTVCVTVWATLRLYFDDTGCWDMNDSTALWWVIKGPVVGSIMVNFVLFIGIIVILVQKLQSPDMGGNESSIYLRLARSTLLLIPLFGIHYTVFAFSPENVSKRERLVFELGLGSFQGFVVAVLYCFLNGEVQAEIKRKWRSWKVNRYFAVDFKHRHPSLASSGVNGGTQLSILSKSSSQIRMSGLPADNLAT
The series can be described thus: Filter binding assay, 125I-labeled PACAP-27 tracer, PAC1 membranes. The settings on record: read-out: Human PAC1 Receptor Binding (IC50; nM).

Another series concerns the target T2, human VPAC1 (Homo sapiens, UniProt P32241).
T2 construct: expressed in transfected cells
T2 sequence (P32241 31-457): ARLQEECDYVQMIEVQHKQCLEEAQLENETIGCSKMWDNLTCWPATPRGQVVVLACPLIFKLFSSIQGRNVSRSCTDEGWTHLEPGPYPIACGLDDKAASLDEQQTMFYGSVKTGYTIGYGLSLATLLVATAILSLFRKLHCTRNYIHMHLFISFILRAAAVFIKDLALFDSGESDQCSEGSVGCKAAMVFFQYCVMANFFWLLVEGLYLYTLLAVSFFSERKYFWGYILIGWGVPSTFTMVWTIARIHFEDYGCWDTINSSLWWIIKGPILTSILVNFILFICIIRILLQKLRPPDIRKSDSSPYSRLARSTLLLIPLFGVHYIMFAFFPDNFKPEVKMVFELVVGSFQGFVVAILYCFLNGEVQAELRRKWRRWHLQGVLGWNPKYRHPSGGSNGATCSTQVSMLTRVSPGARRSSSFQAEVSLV
The series can be described thus: Filter binding assay, 125I-labeled VIP tracer, VPAC1 membranes. The settings on record: read-out: Human VPAC1 Receptor Binding (IC50; nM).

The nature of series [1]: Rat serum stability (activity remaining, CHO-VPAC2 DiscoveRx read-out). It counts as in vitro ADME. As to the method:
The rat serum is stored at 4° C. until use and is used within two weeks. […] The aliquot is stored with aprotinin at 4° C. The aliquot is stored without aprotinin at 37° C. The aliquots are incubated overnight. […] The plate(s) are washed with cells twice in incubation buffer. The plates are allowed to hold 50 μL incubation media per well for 15 minutes. 50 μL solution per well is transferred to the cells from the plate prepared with 11 serial 5× dilutions of peptide for the 4° C. and 37° C. aliquot for each peptide studied, using the maximal concentrations that are indicated by the primary screen, in duplicate. This step dilutes the peptide concentration by a factor of two. The cells are incubated at room temperature for 30 minutes. […] The cells are incubated on the shaker (300 rpm) for 1 hour. Normal procedure with the DiscoveRx kit is followed. cAMP standards are included in column 12. EC50 values are determined from the cAMP assay data.

The target of the next series is T3, human VPAC2 (Homo sapiens, UniProt P41587).
T3 construct: expressed in transfected cells
T3 sequence (P41587 24-438): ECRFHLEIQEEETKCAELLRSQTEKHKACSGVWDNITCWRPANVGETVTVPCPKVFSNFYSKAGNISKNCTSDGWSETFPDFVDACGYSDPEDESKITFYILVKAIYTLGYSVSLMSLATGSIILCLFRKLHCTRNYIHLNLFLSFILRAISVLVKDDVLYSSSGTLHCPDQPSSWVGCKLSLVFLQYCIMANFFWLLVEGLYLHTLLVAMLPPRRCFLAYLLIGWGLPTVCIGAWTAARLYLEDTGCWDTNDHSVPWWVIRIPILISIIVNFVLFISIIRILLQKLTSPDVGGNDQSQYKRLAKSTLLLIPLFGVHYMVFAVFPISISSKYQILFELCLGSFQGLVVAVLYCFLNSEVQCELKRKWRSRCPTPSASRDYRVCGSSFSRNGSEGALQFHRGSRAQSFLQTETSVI
The series can be described thus: Alpha screen cAMP assay, in vitro potency at human VPAC2 receptor. The settings on record: cAMP generation; single result from two analyses in a single run, some values average of more than one experiment. In kind it is cell-based. A general note: Changes in cAMP serve as a functional read-out for many G protein-coupled receptors.

Experimental for human PAC1: (§1) For this assay, the solutions and equipment include:
(§2) Presoak solution: 0.5% Polyethyleneamine in Aqua dest
(§3) Buffer for flushing filter plates: 25 mM HEPES pH 7.4
(§4) Blocking buffer: 25 mM HEPES pH 7.4; 0.2% protease free BSA
(§5) Assay buffer: 25 mM HEPES pH 7.4; 0.5% protease free BSA
(§6) Dilution and assay plate: PS-Microplate, U form
(§7) Filtration Plate: Multiscreen FB Opaque Plate; 1.0 μM Type B Glasfiber filter
(§8) In order to prepare the filter plates, the presoak solution is aspirated by vacuum filtration. The plates are flushed twice with 200 μL flush buffer. 200 μL blocking buffer is added to the filter plate. The filter plate is then incubated with 200 μL presoak solution for 1 hour at room temperature.
(§9) The assay plate is filled with 25 μL assay buffer, 25 μL membranes (2.5 μg) suspended in assay buffer, 25 μL compound (agonist) in assay buffer, and 25 μL tracer (about 40000 cpm) in assay buffer. The filled plate is incubated for 1 hour with shaking.
(§10) The transfer from assay plate to filter plate is conducted. The blocking buffer is aspirated by vacuum filtration and washed two times with flush buffer. 90 μL is transferred from the assay plate to the filter plate. The 90 μL transferred from assay plate is aspirated and washed three times with 200 μL flush buffer. The plastic support is removed. It is dried for 1 hour at 60° C. 30 μL Microscint is added. The count is performed.
Experimental for human VPAC1: as §1, §2, §3, §4, §5, §6, §7, §8, §9, §10

Consider `CCCCCC(=O)N[C@@H](Cc1c[nH]cn1)C(=O)N[C@@H](CO)C(=O)N[C@@H](CC(=O)O)C(=O)N[C@@H](C)C(=O)N[C@H](C(=O)N[C@@H](Cc1ccccc1)C(=O)N[C@H](C(=O)N[C@@H](CC(=O)O)C(=O)N[C@@H](CC(N)=O)C(=O)N[C@@H](Cc1ccc(O)cc1)C(=O)N[C@H](C(=O)N[C@@H](Cc1ccccc1)C(=O)N[C@@H](CC(C)C)C(=O)N[C@@H](CCCNC(=N)N)C(=O)NC(C)(C)C(=O)N[C@@H](CCC(N)=O)C(=O)N[C@H](C(=O)N[C@@H](C)C(=O)N[C@@H](C)C(=O)NC(C)(C)C(=O)N[C@@H](CCCCN)C(=O)N[C@@H](Cc1ccc(O)cc1)C(=O)N[C@@H](CC(C)C)C(=O)N[C@@H](CCC(N)=O)C(=O)N[C@@H](CO)C(=O)N[C@H](C(=O)N[C@@H](CCCN)C(=O)N[C@@H](CC(N)=O)C(=O)N[C@@H](CCCN)C(=O)NCC(=O)NCC(=O)N1CCC[C@H]1C(=O)N[C@@H](CO)C(=O)N[C@@H](CO)C(=O)NCC(=O)N[C@@H](C)C(=O)N1CCC[C@H]1C(=O)N1CCC[C@H]1C(=O)N1CCC[C@H]1C(=O)N[C@@H](CO)C(=O)O)[C@@H](C)CC)C(C)C)[C@@H](C)O)[C@@H](C)O)C(C)C` [Agonist P369] (Hexanoyl-HSDAVFTDNYTFLR[Aib]QVAA[Aib]KYLQSI[Orn]N[Orn]GGPSSGAPPPS-OH; C-terminus assumed), for which the IC50 on human PAC1 was above 25000 nM; at human VPAC1 it was above 3000 nM. The “Rat Serum Stability (estimated purity in % after overnight incub.)” value in series [1] is on record as 133.76%.

Turning to `CCCCCC(=O)N[C@@H](Cc1c[nH]cn1)C(=O)N[C@@H](CO)C(=O)N[C@@H](CC(=O)O)C(=O)N[C@@H](C)C(=O)N[C@H](C(=O)N[C@@H](Cc1ccccc1)C(=O)N[C@H](C(=O)N[C@@H](CC(=O)O)C(=O)N[C@@H](CC(N)=O)C(=O)N[C@@H](Cc1ccc(O)cc1)C(=O)N[C@H](C(=O)N[C@@H](CCCN)C(=O)N[C@@H](CC(C)C)C(=O)N[C@@H](CC(C)C)C(=O)N[C@@H](C)C(=O)N[C@@H](CCCCN)C(=O)N[C@@H](CC(C)C)C(=O)N[C@@H](C)C(=O)N[C@@H](CC(C)C)C(=O)N[C@@H](CCC(N)=O)C(=O)N[C@@H](CCCCN)C(=O)N[C@@H](Cc1ccc(O)cc1)C(=O)N[C@@H](CC(C)C)C(=O)N[C@@H](CCC(N)=O)C(=O)N[C@@H](CO)C(=O)N[C@H](C(=O)N[C@@H](CCCN)C(=O)N[C@@H](CC(N)=O)C(=O)N[C@@H](CCCN)C(=O)NCC(=O)NCC(=O)N1CCC[C@H]1C(=O)N[C@@H](CO)C(=O)N[C@@H](CO)C(=O)NCC(=O)N[C@@H](C)C(=O)N1CCC[C@H]1C(=O)N1CCC[C@H]1C(=O)N1CCC[C@H]1C(=O)N[C@@H](CO)C(=O)O)[C@@H](C)CC)[C@@H](C)O)[C@@H](C)O)C(C)C` [Agonist P371] (Hexanoyl-HSDAVFTDNYT[Orn]LLAKLALQKYLQSI[Orn]N[Orn]GGPSSGAPPPS-OH; C-terminus assumed), the IC50 on human PAC1 was above 25000 nM. The EC50 on human VPAC2 came out at 0.13 nM.

Regarding `CCCCCC(=O)N[C@@H](Cc1c[nH]cn1)C(=O)N[C@@H](CO)C(=O)N[C@@H](CC(=O)O)C(=O)N[C@@H](C)C(=O)N[C@H](C(=O)N[C@@H](Cc1ccccc1)C(=O)N[C@H](C(=O)N[C@@H](CC(=O)O)C(=O)N[C@@H](CC(N)=O)C(=O)N[C@@H](Cc1ccc(O)cc1)C(=O)N[C@H](C(=O)N[C@@H](CCCN)C(=O)N[C@@H](CC(C)C)C(=O)N[C@@H](CCCNC(=N)N)C(=O)NC(C)(C)C(=O)N[C@@H](CCC(N)=O)C(=O)N[C@H](C(=O)N[C@@H](C)C(=O)N[C@@H](CO)C(=O)NC(C)(C)C(=O)N[C@@H](CCCCN)C(=O)N[C@@H](Cc1ccc(O)cc1)C(=O)N[C@@H](CC(C)C)C(=O)N[C@@H](CCC(N)=O)C(=O)N[C@@H](CO)C(=O)N[C@H](C(=O)N[C@@H](CCCN)C(=O)N[C@@H](CC(N)=O)C(=O)N[C@@H](CCCN)C(=O)NCC(=O)NCC(=O)N1CCC[C@H]1C(=O)N[C@@H](CO)C(=O)N[C@@H](CO)C(=O)NCC(=O)N[C@@H](C)C(=O)N1CCC[C@H]1C(=O)N1CCC[C@H]1C(=O)N1CCC[C@H]1C(=O)N[C@@H](CO)C(=O)O)[C@@H](C)CC)C(C)C)[C@@H](C)O)[C@@H](C)O)C(C)C` [Agonist P387] (Hexanoyl-HSDAVFTDNYT[Orn]LR[Aib]QVAS[Aib]KYLQSI[Orn]N[Orn]GGPSSGAPPPS-OH; C-terminus assumed), the values for the IC50 on human PAC1 and on human VPAC1 were above 25000 nM and above 3000 nM, respectively. Also, the “Rat Serum Stability (estimated purity in % after overnight incub.)” value in series [1] is 74.99%.

`CCCCCC(=O)N[C@@H](Cc1c[nH]cn1)C(=O)N[C@@H](CO)C(=O)N[C@@H](CC(=O)O)C(=O)N[C@@H](C)C(=O)N[C@H](C(=O)N[C@@H](Cc1ccccc1)C(=O)N[C@H](C(=O)N[C@@H](CC(=O)O)C(=O)N[C@@H](CC(N)=O)C(=O)N[C@@H](Cc1ccc(O)cc1)C(=O)N[C@H](C(=O)N[C@@H](CCCN)C(=O)N[C@@H](CC(C)C)C(=O)N[C@@H](CCCNC(=N)N)C(=O)NC(C)(C)C(=O)N[C@@H](CCC(N)=O)C(=O)N[C@H](C(=O)N[C@@H](C)C(=O)N[C@@H](C)C(=O)NC(C)(C)C(=O)N[C@@H](CCCCN)C(=O)N[C@@H](Cc1ccc(O)cc1)C(=O)N[C@@H](CC(C)C)C(=O)N[C@@H](CCC(N)=O)C(=O)N[C@@H](CO)C(=O)N[C@@H](CO)C(=O)N[C@@H](CCCN)C(=O)N[C@@H](CC(N)=O)C(=O)N[C@@H](CCCN)C(=O)NCC(=O)NCC(=O)N1CCC[C@H]1C(=O)N[C@@H](CO)C(=O)N[C@@H](CO)C(=O)NCC(=O)N[C@@H](C)C(=O)N1CCC[C@H]1C(=O)N1CCC[C@H]1C(=O)N1CCC[C@H]1C(=O)N[C@@H](CO)C(=O)O)C(C)C)[C@@H](C)O)[C@@H](C)O)C(C)C` [Agonist P382] (Hexanoyl-HSDAVFTDNYT[Orn]LR[Aib]QVAA[Aib]KYLQSS[Orn]N[Orn]GGPSSGAPPPS-OH; C-terminus assumed): the IC50 was above 25000 nM at human PAC1 and above 3000 nM at human VPAC1. Further, the “Rat Serum Stability (estimated purity in % after overnight incub.)” value in series [1] was 92.34%.

For `CCCCCC(=O)N[C@@H](Cc1c[nH]cn1)C(=O)N[C@@H](CO)C(=O)N[C@@H](CCC(=O)O)C(=O)N[C@@H](C)C(=O)N[C@H](C(=O)N[C@@H](Cc1ccccc1)C(=O)N[C@H](C(=O)N[C@@H](CCC(=O)O)C(=O)N[C@@H](CC(N)=O)C(=O)N[C@@H](Cc1ccc(O)cc1)C(=O)N[C@H](C(=O)N[C@@H](CCCN)C(=O)N[C@@H](CC(C)C)C(=O)N[C@@H](CCCNC(=N)N)C(=O)NC(C)(C)C(=O)N[C@@H](CCC(N)=O)C(=O)N[C@H](C(=O)N[C@@H](C)C(=O)N[C@@H](C)C(=O)NC(C)(C)C(=O)N[C@@H](CCCCN)C(=O)N[C@@H](Cc1ccc(O)cc1)C(=O)N[C@@H](CC(C)C)C(=O)N[C@@H](CCC(N)=O)C(=O)N[C@@H](CO)C(=O)N[C@H](C(=O)N[C@@H](CCCN)C(=O)N[C@@H](CC(N)=O)C(=O)N[C@@H](CCCN)C(=O)NCC(=O)NCC(=O)N1CCC[C@H]1C(=O)N[C@@H](CO)C(=O)N[C@@H](CO)C(=O)NCC(=O)N[C@@H](C)C(=O)N1CCC[C@H]1C(=O)N1CCC[C@H]1C(=O)N1CCC[C@H]1C(=O)N[C@@H](CO)C(=O)O)[C@@H](C)CC)C(C)C)[C@@H](C)O)[C@@H](C)O)C(C)C` [Agonist P362] (Hexanoyl-HSEAVFTENYT[Orn]LR[Aib]QVAA[Aib]KYLQSI[Orn]N[Orn]GGPSSGAPPPS-OH; C-terminus assumed), the IC50 on human PAC1 is above 25000 nM; on human VPAC1, above 3000 nM. In series [1], the “Rat Serum Stability (estimated purity in % after overnight incub.)” value was 82.77%.

(Values after patent publication US20080194482A1, “Selective Apac2 Receptor Peptide Agonists” (priority 2005, published 2008).)
